The source of these data is a melting point compilation (Tetko et al.; mined from patent text by program, amines drawn as free bases though some values may be those of a salt).

SMILES strings stand for the structures. Bounds are passed on as bounds.

A word on the melting point: it is the temperature of the solid-liquid transition.

Consider `CCCCCCCN(C(=O)Nc1ccccc1CCc1cc(C(C)(C)C)c(O)c(C(C)(C)C)c1)C1CCCCCC1`, for which the melting point was in the range of 70 to 72 °C.
`O=C(Nc1ncc(C(F)(F)F)o1)C1c2cc(F)ccc2Oc2ccc(F)cc21` yielded a melting point of 232 °C.
Under `NNC(=O)c1cnn(-c2ccc(NN)nn2)c1N` stands 302 to 305 °C; under `CC(C)(C)c1csc(-c2cc3cc(O)ccc3o2)n1`, 179 to 180 °C.
`O=C(NOCCO)c1ccc(F)c(F)c1Nc1ccccc1F` came in with a melting point of 130 °C.
Under `COc1ccc(CCOc2ccc(C(=O)N/C(=C\c3ccc(OCC(F)F)cc3)C(=O)NCCO)cc2)cc1` stands 172 to 174 °C; under `O=C1c2ccccc2-c2cc(O)c(Cl)c(Cl)c21`, 276 to 284 °C; under `CC1CCC(=O)N1c1ccnc(NC(=O)NCc2ccccn2)c1` (centres undefined), 155 to 160 °C.
To `CC(C)(C)c1ccc(CN2CCN(c3ccccc3)CC2)o1` belongs 48 °C; to `CC(C)OC(=O)c1cn(Cc2c(F)cccc2F)c2nc(-c3ccc(N)cc3)c(CN(C)Cc3ccccc3)n2c1=O`, 168 to 170 °C.
Under `COC(=O)C#CC(=O)c1ccccc1` stands 31 to 35 °C; under `Cc1nn(C)c2c(=O)n(C)c(C)nc12`, 190 to 192 °C; under `CC(=O)n1c(=O)n(-c2ccc(Cl)cc2)c(=O)n1C(C)=O`, 148 to 150 °C.
`Cc1nc(=O)c(C)c(NCCc2cccn2C)[nH]1`: the melting point was in the range of 246 to 247 °C.
Under `CCOC(=O)Cc1c(-c2ccccc2)c2cc(CO)c(CO)cc2oc1=O` stands 130 to 131 °C.
To `C=C(C)C(=O)OCCCCOC(=O)/C=C/c1ccc(OC(=O)c2ccc(OC)cc2)cc1` belongs 89 to 90 °C; to `Cc1ccc(-c2cn3cc(-c4cccc(CO)c4)ccc3n2)cc1`, 171 to 173 °C.
`COC(=O)c1cc(Cl)c(NC(C)=O)cc1OC1C=CCCC1` (centres undefined) came in with a melting point of 100 to 102 °C.
Under `COc1ccc(C(=O)NCCCCCCCCCCNC(=O)c2ccc(OC)cc2)cc1` stands 168 to 170 °C; under `COCC1CN(c2ccc3nc(C(O)CCCO)sc3c2)C(=O)O1` (centres undefined), 137 to 138 °C; under `COc1ccc(CN(C)CCc2ccc(NC(=O)c3cccc4c(=O)c5cccc([N+](=O)[O-])c5[nH]c34)cc2)cc1OC`, 197 °C.
As to `COc1cccc2c1CC(CC=O)C2=O` (racemic), the melting point was 71 °C.
Under `CCOC(=O)CN(CCN(CCN1CC(=O)OC(=O)C1)CC(=O)O)CC(=O)O` stands 195 to 196 °C; under `c1ccc(-c2nc(SCCOCCSc3nc(-c4ccccc4)c(-c4ccccc4)[nH]3)[nH]c2-c2ccccc2)cc1`, 232 to 234 °C; under `CC(C)NC(=O)c1c(F)cccc1S(=O)C(C)(C)C` (centres undefined), 120 to 135 °C.
Under `COc1ccc(-c2nnn(-c3cc(C)on3)c2N)cc1` stands 136 to 141 °C.
For the compound `COC(=O)CCCc1cc2nc(Cl)ccc2n1S(=O)(=O)c1cccc2nccnc12`, the melting point came out at 71 °C.
Under `CN1C=C(C(=O)O)C(=O)CC1c1ccc(Cl)cc1` (centres undefined) stands 205 to 206 °C; under `CS(=O)(=O)Nc1ccc(F)c(C(=O)O)c1`, 203 to 205 °C.
To `COc1ccc(S(=O)(=O)N2C(=O)C(c3ccccc3OC)(N3Cc4cc(OC)c(OC)cc4C[C@H]3C(=O)N(C)C)c3cc(Cl)ccc32)c(OC)c1` (some centres undefined) belongs 157 °C; to `CC(C)(COc1c(-c2ccccc2)c(=O)oc2ccccc12)CN1CCOCC1`, 167 °C; to `CCOc1c(C(N)=O)cnc2c(NC(=O)c3c(Cl)cccc3Cl)cccc12`, 242 to 245 °C.
Under `Nc1ccc(N2C(=O)CCCC2c2ccc(Cl)c(Cl)c2)cc1` (centres undefined) stands 177 to 178 °C.
Compound `Cn1c(=O)c2c(ncn2CC(O)Cc2noc(CCN3CCCCC3)n2)n(C)c1=O` (centres undefined) came in with a melting point of 110 to 111 °C.
Consider `Cc1ccc(-n2nc(C)c(CC(=O)O)c2C)cc1`, for which the melting point fell in the range of 119 to 121 °C.
Compound `COc1ccc2oc(C(O)Cc3ccccc3)cc2c1` (centres undefined) came in with a melting point of 69 to 70 °C.
To `Cc1c2cnc3c([N+](=O)[O-])cccc3c2nn1C` belongs 235 to 236 °C; to `CC1(C2CC2)OC(=O)Nc2ccc(-c3cccc(Cl)c3)cc21` (centres undefined), 158 to 159 °C.
In turn, `COc1ccc(C(=NO)c2cc(F)ccc2F)c(O)c1Cl` had a melting point of 209 to 210 °C.
To `CCOc1cccc(-c2cc(F)c(NC(=O)c3ccccc3CO)c(F)c2)c1` belongs 94.8 to 99.1 °C; to `O=S(c1ccccc1)c1cccnc1` (centres undefined), 56 °C.
For the compound `O=C1NC(O)c2c1c1c3ccccc3[nH]c1c1[nH]c3ccccc3c21` (centres undefined), the melting point is over 300 °C.
To `Cc1cc(O)ccc1NCCCCCCBr` belongs 142 to 144 °C; to `O=C(CSc1ccccc1)C1CCCCN1` (centres undefined), 68.5 to 69.5 °C.
For the compound `C=CCC(CO)C(O)c1ccccc1` (centres undefined), the melting point was 41 to 43 °C.
On to `CCCCn1c(=O)[nH]c(=O)c2c1ncn2CC(C)=O`, for which the melting point was determined as 218 °C.
Under `COc1ccc(Nc2nc(NC(=O)C(C)(C)C)nc3[nH]c4ccccc4c23)cc1` stands 219 to 220 °C; under `COc1cc2ncnc(N3CCc4ccc(Cl)cc43)c2cc1SC`, 210 °C.
To `CCn1nc(C(F)(F)F)c(C)c1O` belongs 150 to 152 °C; to `Fc1cc(-c2ccc3nnn(Cc4ccc5ncccc5c4)c3n2)ccc1OCC1CC1`, 160 to 162 °C; to `Cc1c(C)c2c(c(C)c1NC(=O)c1ccc(Cl)cc1)C(c1ccc(C(C)C)cc1)C1(CCN(C)CC1)O2` (centres undefined), 293 to 295 °C.
To `CCC(=O)CC(=O)c1ccc(C2CCC(CC)CC2)cc1` (centres undefined) belongs 78 °C; to `O=C(C1=Cc2ccccc2C1)c1ccc(OC(F)(F)F)cc1`, 115 to 117 °C.
Regarding `COc1ccc(C(=O)O)cc1NC(=O)c1cc(C(C)(C)C)c(O)c(C(C)(C)C)c1`, the melting point fell in the range of 259 to 261 °C.
To `CCC1c2cccn2-c2ccc(F)cc2N1S(=O)(=O)c1ccc(OC)c(C)c1` (centres undefined) belongs 164 to 166 °C; to `CC(C)CC(=O)CNC(=O)c1ccc(Cl)cc1`, 127 to 129 °C.
Under `Cc1ccc(-n2c(-c3c4ccccc4cc4ccccc34)ccc2-c2c3ccccc3cc3ccccc23)cc1` stands 262 to 263 °C; under `COc1ccc(N(S(C)(=O)=O)S(C)(=O)=O)cc1CN1CCC(=O)C(C(c2ccccc2)c2ccccc2)C1` (centres undefined), 132 to 135 °C; under `Clc1cccc2cnsc12`, 50 to 51 °C.
To `Nc1nc(-c2ccc(CCNC(=O)C(F)(F)F)cc2)cs1` belongs 180 to 182 °C; to `N#CC(=CNc1ccccc1)Cc1ccc2c(c1)OCO2`, 150 to 151 °C; to `COc1ccc(C2CCOCC2)c2sc(-c3ncc[nH]3)nc12`, 220 to 224 °C.
The compound `CN(C)C(=O)Nc1cccc(-c2nc(=O)c3ccccc3s2)n1` showed a melting point of 230 °C.
To `COc1ccc(-n2c(=O)c3c(c4cccnc42)OCC3)cc1` belongs 282 to 284 °C.
